Reference: patent EP0332387B1, “Triazole derivatives, their preparation and their use as fungicides” (Sankyo Company Limited, priority 1988, dated 1989)

Columns and labels:
Type in all cases: in vivo
Venturia inaequalis = test: Preventive activity against apple scab (Experiment 9); settings: for Index (disease controlling index): apple seedlings sprayed at 300 ppm, inoculated after 24 hours, 3 days moist chamber then 10 days greenhouse, diseased area on third and fourth leaves
Protocol: Apple seedlings at the 3 - 4 leaf stage were sprayed with an aqueous suspension of the test compound at a concentration of 300 ppm (30 ml/3 pots). The seedlings were then kept for 24 hours at room temperature, after which they were inoculated with the fungus, Venturia inaequalis, by spraying a spore suspension of the fungus over the seedlings. After inoculation, the seedlings were kept in a moist chamber for 3 days at 20 - 22 °C and then moved to a greenhouse at 20 - 22°C for 10 days. The disease controlling index was given on the basis of the diseased area on the third and fourth leaves.

Rhizoctonia solani [1] = test: Curative activity against sheath blight of rice plants (Experiment 3); design: key: 0 = disease as untreated, 5 = no disease (complete control); settings: rice seedlings (variety Nihonbare), sprayed 24 hours after inoculation at 10 ppm (30 ml/3 pots), further 5 days; height of the lesions
Protocol: Rice seedlings (variety Nihonbare) at the 4 - 5 leaf stage were inoculated with the fungus, Rhizoctonia solani, by placing 4 - 5 oat grains on which the fungus had previously been cultured around the base of each rice seedling and keeping them in a moist chamber at 25 - 27 °C. After 24 hours, the rice seedlings were sprayed with an aqueous suspension of the test compound at a concentration of 10 ppm (30 ml/3 pots) and they then continued to be kept in the moist chamber for a further 5 days. The disease controlling index was given on the basis of the height of the lesions formed on the rice seedlings.
(§1) The compounds tested have the formula (1-1), in which Ar represents the group shown at the beginning of each part of the Table and R^1, R^2, X and Y are as defined in the Table.
(§2) The disease controlling index shown in the foregoing Tables 11 to 19 is indicated by the following codes: • 5--no disease (complete control) • 4--disease rate is less than 10% of the untreated plant • 3--disease rate is 10% - 30% of the untreated plant • 2--disease rate is 30% - 50% of the untreated plant • 1--disease rate is 50% - 70% of the untreated plant • 0--disease rate is almost same as the untreated plant.

Pyricularia oryzae = settings: rice seedlings (variety Sachikaze), sprayed 24 hours after inoculation at 10 ppm (30 ml/3 pots), further 6 days; number of lesions on the upper two leaves
Puccinia recondita = test: Curative activity against leaf rust of wheat (Experiment 6); settings: wheat seedlings (variety Norin No 61), sprayed after inoculation at 3 ppm (30 ml/3 pots), 10 days; diseased area on the first leaf
Protocol: Wheat seedlings (variety Norin No 61) at the first leaf stage were inoculated with the fungus, Puccinia recondita, by spraying them with a spore suspension of the fungus. They were then kept in a moist chamber for 24 hours at 20 - 22 °C, after which they were moved to a greenhouse at 15 - 20 °C. […] The seedlings were then continuously kept in the greenhouse for 10 days. The disease controlling index was given on the basis of diseased area on the first leaf.

Rhizoctonia solani [2] = test: Preventive activity against sheath blight of rice plants by submerged application (Experiment 4); settings: rice seedlings (variety Nihonbare), applied to the water in the pots, 100 g per 10 ares, inoculated after 7 days, 5 days; height of the lesions
Text: Rice seedlings (variety Nihonbare) at the 4 - 5 leaf stage grown in pots were flooded to a depth of 1 cm with water. The test compound was then applied to the water in the pots in an amount corresponding to 100 g per 10 ares. After keeping the seedlings in a greenhouse for 7 days, the water was drained from the pots and the seedlings were inoculated with the fungus, Rhizoctonia solani, by placing 4 - 5 oat grains on which the fungus had previously been cultured around the base of each seedling. The seedlings were then kept in a moist chamber for 5 days at 25 - 27 °C. The disease controlling index was given on the basis of the height of the lesions formed on the rice seedlings.
Except for Table 14F, the compounds tested have the formula (1-1), in which Ar represents the group shown at the beginning of each part of the Table and R^1, R^2, X and Y are as defined in the Table.
as §2

Sphaerotheca fuliginea = test: Preventive activity against powdery mildew of cucumber (Experiment 8); settings: cucumber seedlings sprayed at 300 ppm, inoculated after 24 hours, evaluated after 7 days in greenhouse; diseased area on third and fourth leaves
Protocol: Cucumber seedlings (variety Sagamihanpaku) at the 3 - 4 leaf stage were sprayed with an aqueous suspension of the test compound at a concentration of 300 ppm (30 ml/3 pots). The seedlings were then kept for 24 hours at room temperature, after which they were inoculated with conidida of Sphaerotheca fuliginea. After keeping the seedlings in a greenhouse for 7 days, the disease controlling index was evaluated on the basis of the diseased area on the third and fourth leaves.

[3] = test system: Erysiphe graminis f.sp. hordei; test: Curative activity against powdery mildew of barley (Experiment 7); settings: barley seedlings (variety Sekishinriki), sprayed one day after inoculation at 3 ppm (30 ml/3 pots), further 10 days; diseased area on the first leaf
Protocol: Barley seedlings (variety […]) at the first leaf stage were inoculated with conidia of Erysiphe graminis f.sp. hordei and kept in a greenhouse at 15 - 20°C. After one day, the seedlings were sprayed with an aqueous suspension of the test compound at a concentration of 3 ppm (30 ml/3 pots), and they continued to be kept in the greenhouse at that temperature for a further 10 days. The disease controlling index was given on the basis of the diseased area on the first leaf.

Rhizoctonia solani [4] = test: Preventive activity against sheath blight of rice plants (Experiment 2); design: key: 0 = disease as untreated, 5 = no disease (complete control); settings: rice seedlings (variety Nihonbare), sprayed at 100 ppm (30 ml/3 pots) 24 hours before inoculation, 5 days; height of the lesions
Protocol: Rice seedlings (variety Nihonbare) at the 4 - 5 leaf stage were sprayed with an aqueous suspension of the test compound at a concentration of 100 ppm (30 ml/3 pots). The seedlings were then kept for 24 hours at room temperature, after which they were inoculated with the fungus, Rhizoctonia solani, by placing 4 - 5 oat grains on which the fungus had previously been cultured around the base of each seedling. The seedlings were then kept in a moist chamber for 5 days at 25 - 27 °C. The disease controlling index was given on the basis of the height of the lesions formed on the rice seedlings.
Except in Table 12G, the compounds tested have the formula (1-1), in which Ar represents the group shown at the beginning of each part of the Table and R^1, R^2, X and Y are as defined in the Table.
as §2

Gibberella Fujikuroi = test: Activity against bakanae disease of rice plants by seed soaking (Experiment 5); design: key: 0 = disease as untreated, 5 = no disease (complete control); settings: infected rice seeds (variety Tanginbozu) immersed 3 days in aqueous suspension (concentration not given), 3 weeks; number of diseased seedlings
Protocol: Ten grams of rice seeds (variety Tanginbozu), infected with Gibberella Fujikuroi, were immersed in 20 ml of an aqueous suspension of the test compound for 3 days. At the end of this time, the treated seeds were densely sown in soil in pots, and the pots were placed in a greenhouse at 20 - 30 °C for 3 weeks. The disease controlling index was given on the basis of the number of diseased seedlings.
as §1, §2

Candida albicans = test: ED50 in mice infected with Candida albicans, oral treatment (Experiment 11); settings: 360 h, treated orally, fifteen days after infection
Protocol: Groups of mice (each group contained 10 mice) were inoculated with 7 to 9 x 10^6 spores per mouse of Candida albicans. 1, 4, and 24 hours after the inoculation, each mouse was orally administered 20 mg/kg of the test compound each time. The anti-fungal activity was assessed by the survival rate 9 days after infection. The survival rate was recorded as 0% 2 days after infection in an untreated (control) group. […] Following essentially the same procedure as that described in Experiment 10, mice were infected with Candida albicans, and treated orally with various compounds of the invention, as shown in the following Table 21. Fifteen days after infection (or fourteen days in the case of the compounds of Example Nos. 5 and 10), ED50 values were determined and are reported in the following Table 21.

For C[C@@H](N=[N+]=[N-])[C@](O)(Cn1cncn1)c1ccc(Cl)cc1Cl (relative stereo) [Example 2, (2R*, 3R*)-3-Azido-2-(2,4-dichlorophenyl)-l-(lH-1,2,4-triazol-1-yl)-2-butanol], the “Index (disease controlling index)” value (Venturia inaequalis) was 5, the disease controlling index (Rhizoctonia solani [1]) was 5 and the disease controlling index (Pyricularia oryzae) was 4 (disease rate is less than 10% of the untreated plant). The disease controlling index (Puccinia recondita) was 5, the disease controlling index (Rhizoctonia solani [2]) was 5 and the “Index (disease controlling index)” value (Sphaerotheca fuliginea) was 5.
Work on C[C@@H](NC(=O)c1ccc(Cl)cc1)[C@](O)(Cn1cncn1)c1ccc(F)cc1F (relative stereo) [Example 16, (2R*, 3R*)-3-(4-Chlorobenzoylamino)-2-(2,4-difluorophenyl)-1-(1 H-1 ,2,4-triazol-1-yl)-2-butanol] yielded a disease controlling index (Venturia inaequalis; apple seedlings, sprayed at 300 ppm (30 ml/3 pots) 24 hours before inoculation, diseased area on the third and fourth leaves) of 5, a disease controlling index (Rhizoctonia solani [1]) of 5 and a disease controlling index (Pyricularia oryzae) of 5. For the same compound, the disease controlling index (Puccinia recondita) was 5, the disease controlling index [3] was 5 and the “Index (disease controlling index)” value (Sphaerotheca fuliginea) was 5. For the same compound, the disease controlling index (Rhizoctonia solani [4]) was 5 and the disease controlling index (Gibberella Fujikuroi) was 4 (disease rate is less than 10% of the untreated plant).
For C[C@@H](CCN=[N+]=[N-])[C@](O)(Cn1cncn1)c1ccc(F)cc1F (relative stereo) [Example 81, (2R*, 3S*)-5-Azido-2-(2,4-difluorophenyl)-3-methyl-1-(1H-1,2,4-triazol-1-yl)-2-pentanol], the disease controlling index (Rhizoctonia solani [1]) was 5, the disease controlling index (Pyricularia oryzae) was 5 and the disease controlling index (Puccinia recondita) was 5. The disease controlling index (Rhizoctonia solani [2]) was 4 (disease rate is less than 10% of the untreated plant), the disease controlling index (Rhizoctonia solani [4]) was 5 and the disease controlling index (Gibberella Fujikuroi) was 5.
For C[C@@H](CN=[N+]=[N-])[C@](O)(Cn1cncn1)c1ccc(Cl)cc1Cl (relative stereo) [Example 90, (2R*, 3S*)-4-Azido-2-(2,4-dichlorophenyl)-3-methyl-1-(1H-1,2,4-triazol-1-yl)-2-butanol], the disease controlling index (Pyricularia oryzae) was 5, the disease controlling index (Rhizoctonia solani [2]) was 5 and the disease controlling index (Rhizoctonia solani [4]) was 5. For the same compound, the disease controlling index (Gibberella Fujikuroi) was 5.
In the case of CC(N=[N+]=[N-])[C@H](C)[C@](O)(Cn1cncn1)c1ccc(F)cc1F (single isomer, unassigned) [83 (C-4 isomer 1), (2R*, 3S*)-4-Azido-2-(2,4-difluorophenyl)-3-methyl-1-(1H-1,2,4-triazol-1-yl)-2-pentanol], the “Index (disease controlling index)” value (Venturia inaequalis) is reported as 5, the disease controlling index (Rhizoctonia solani [1]) is reported as 5 and the disease controlling index (Pyricularia oryzae) is reported as 5. It also gave a disease controlling index (Puccinia recondita) of 5, a disease controlling index (Rhizoctonia solani [2]) of 5 and a disease controlling index [3] of 5. The “Index (disease controlling index)” value (Sphaerotheca fuliginea) was 5, the disease controlling index (Rhizoctonia solani [4]) was 5 and the disease controlling index (Gibberella Fujikuroi) was 5.
CC(N=[N+]=[N-])[C@H](C)[C@](O)(Cn1cncn1)c1ccc(F)cc1F (single isomer, unassigned) [83 (oxalate, C-4 isomer 2), (2R*, 3S*)-4-Azido-2-(2,4-difluorophenyl)-3-methyl-1-(1H-1,2,4-triazol-1-yl)-2-pentanol] was tested, and the “Index (disease controlling index)” value (Venturia inaequalis) was 5, the disease controlling index (Rhizoctonia solani [1]) was 5 and the disease controlling index (Pyricularia oryzae) was 5. For the same compound, the disease controlling index (Puccinia recondita) was 5, the disease controlling index (Rhizoctonia solani [2]) was 4 (disease rate is less than 10% of the untreated plant) and the disease controlling index [3] was 5. The “Index (disease controlling index)” value (Sphaerotheca fuliginea) was 5, the disease controlling index (Rhizoctonia solani [4]) was 5 and the disease controlling index (Gibberella Fujikuroi) was 5.
O=C(NCC(O)(Cn1cncn1)c1ccc(Cl)cc1Cl)c1ccc(Cl)cc1 (centres unmarked) [Compound X, 3-(4-chlorobenzoylamino)-2-(2,4-dichlorophenyl)-1-(1H-1,2,4-triaiol-1-yl)-2-propanol, reference compound] was tested, and the disease controlling index (Rhizoctonia solani [1]) was 0, the disease controlling index (Pyricularia oryzae) was 0 and the disease controlling index (Rhizoctonia solani [2]) was 0.
In the case of C[C@@H](NC(=O)c1ccc(C#N)cc1)[C@](O)(Cn1cncn1)c1ccc(F)cc1F [Example 67], the ED50 (Candida albicans) is reported as 1.25 mg/kg, the disease controlling index (Rhizoctonia solani [1]) is reported as 4 (disease rate is less than 10% of the untreated plant) and the disease controlling index (Puccinia recondita) is reported as 4 (disease rate is less than 10% of the untreated plant). The disease controlling index [3] was 4 (disease rate is less than 10% of the untreated plant), the “Index (disease controlling index)” value (Sphaerotheca fuliginea) was 5 and the disease controlling index (Rhizoctonia solani [4]) was 4 (disease rate is less than 10% of the untreated plant).
For C[C@@H](N=[N+]=[N-])[C@](O)(Cn1cncn1)c1ccc(F)cc1F [Example 99, (2R, 3R)-3-Azido-2-(2,4-difluorophenyl)-1-(1H-1,2,4-triazol-1-yl)-2-butanol], the “Index (disease controlling index)” value (Venturia inaequalis) was 5, the disease controlling index (Rhizoctonia solani [1]) was 5 and the disease controlling index (Pyricularia oryzae) was 5. The disease controlling index (Rhizoctonia solani [2]) was 4 (disease rate is less than 10% of the untreated plant), the “Index (disease controlling index)” value (Sphaerotheca fuliginea) was 5 and the disease controlling index (Gibberella Fujikuroi) was 5.
With C[C@@H](NC(=O)c1ccc(C(F)(F)F)cc1)[C@](O)(Cn1cncn1)c1ccc(Cl)cc1 [Example 103, (2R, 3R)-2-(4-Chlorophenyl)-1-(1H-1,2,4-triazol-1-yl)-3-[(4-trifluoromethyl)benzoylamino]-2-butanol] the ED50 (Candida albicans) was 0.48 mg/kg.
Work on CC(=O)N1CCN(c2ccc(OCC3COC(Cn4ccnc4)(c4ccc(Cl)cc4Cl)O3)cc2)CC1 (centres unmarked) [ketoconazole, reference compound] yielded an ED50 (Candida albicans) of 31.4 mg/kg.
